The values below come from patent publication US12180612B2, “Plant tissue-derived nanofibres” (priority 2018, dated 2024).

In one series the test system is HT 29 cells. The experiment in a line: Uptake of calcein and calcein-loaded nanofibres, confocal microscopy. Type of series: cell-based, human. The procedure: (§1) Calcein uptake into HT 29, CRL 1790 cells: Uptake of calcein-loaded nanoparticles into mammalian cells. Calcein by itself is impermeable through membrane, and may be taken up at a low level by endocytosis. Ethanol-bleached cherry was homogenized in water, also containing 1 mg/g fresh weight equivalent of calcein, and the supernatant dialyzed against water. Calcein complexed to nanofilaments is retained within the dialysis bag, and used for uptake measurements by confocal microscopy.
(§2) Uptake of complexed molecules by nanofibres: Nanofibres are extremely long (micrometers in length, ˜5 nm in diameter; see FIG. 37, for example), and their ability to cross the plasma membrane was investigated. In this experiment, the ability of nanofibres to form natural complexes with a membrane impermeable fluorescent dye, calcein, was investigated. Nanofibres where prepared from ethanol-bleached cherry by procedures described herein above. […] HT-29 and CRL-1790 cells were incubated in the presence of calcein alone, and calcein-complexed nanofibres (of equal fluorescence intensity). Uptake of calcein and calcein complexed with nanofibres were monitored by confocal microscopy. […] Similar experiments were also conducted with nanoparticles, however, because of quenching of fluorescence by polyphenols, successful acquisition of images was not achieved.

Series [1] relates to normal human intestinal CRL 1790 cells. The description is as above. In kind it is cell-based. The procedure:
as §1, §2

For series [2], the system named is human colorectal cancer cells (HT 29). The note with it: B-Live/Dead cell analysis; paclitaxel 32 nM, 24 h, without or with nanofibre 4 μg/ml. The procedure: (§3) Live-Dead cell analysis: Cells were grown as confluent and subconfluent monolayers for 24 h as described previously (Hakimuddin et al., 2004). Cells were treated with paclitaxel, or paclitaxel along with nanofibers for 12 h (Appropriate amounts of paclitaxel and nanofibers were mixed in 5% DMSO in water, and added to the cells). Cells were washed with phosphate buffer and cell viability tests performed on CRL 1790, CRL 2158 and HT 29 cells using a live/dead cell viability kit (Invitrogen, Mississauga, Ontario) as described by the manufacturer. Live dead cells were visualized under a confocal microscope. The assay kit contains two fluorescent dyes, calcein AM ester (Ex 494 nm, Em 517 nm) which specifically enters live cells, gets de-esterified and stains the live cells green. The dying cells as well as dead cells are membrane compromised (leaky plasma membrane) and allows the entry of ethidium homodimer Ex 517 nm/Em 617), which stains the nucleus red.
(§4) Differentiating cytotoxicity by Live-Dead cell analysis: Further studies were performed to investigate delivery of paclitaxel using nanofibres into various cell lines. To further evaluate the efficiency of nanofibres in enhancing cytotoxicity of paclitaxel, live-dead cell analysis was conducted. Normal cells (CRL 1790), cancer cells (HT-29) and the MDR cells (CRL 2158) were cultured and exposed to paclitaxel alone, and paclitaxel along with nanofibres. The cells were cultured for 24 h at which time point, paclitaxel and the nanofibres were added to the culture. Live dead cell analysis was performed 24 h after exposure to the drug. […] The assay kit (Invitrogen) contains two fluorescent dyes, calcein AM ester (Ex 494 nm, Em 517 nm) which specifically enters live cells, gets de-esterified and stains the live cells green. The dying cells as well as dead cells are membrane compromised (leaky plasma membrane) and allows the entry of ethidium homodimer (Ex 517 nm/Em 617), which stains the nucleus red. […] Panels B, C represent control cells visualized at 617 nm (red, dead cells) and at 517 nm (green, live cells), respectively. Panel A is a composite image of untreated cells. Panels E, F represent the images of cells treated with paclitaxel (32 nM) recorded at the two wavelengths 617 and 517 nm respectively. Panel D is a composite image. Panels H and I show the cells treated with paclitaxel+nanofibres (32 nM+4 μg/ml nanofibers, the fibers and appropriate amount of paclitaxel were mixed in 5% DMSO and added to the culture medium of cells and allowed to incubate for 12 h). Panel G is a composite of the red and green images.

Series [3] has as its system Human colorectal MDR cancer Cells (CRL 2158). As to conditions: B-Live/Dead cell analysis, paclitaxel 32 nM, 24 h, without or with nanofibre 4 μg/ml. On the procedure:
as §3, §4

The subject of series [4] is Normal Human Intestinal Cells (CRL 1790). The note with it: B-Live/Dead cell analysis; paclitaxel 32 nM, 24 h, without or with nanofibre 4 μg/ml. On the procedure: as §3, §4
In series [5] the test system is human colorectal cancer cells (HT 29). On the procedure: (§5) Cell culture: Three cell lines derived from colon, CRL 1790, a normal cell line, HT 29, a colorectal cancer cell line and CRL 2158 a multidrug resistant colorectal cancer cell line (ATCC) were used to evaluate the cytotoxicity of nanocomplexes. Cells were cultured in media specifically recommended for each cell line. For HT 29, the medium used was DMEM (Dulbecco's modified Eagle's medium, Sigma), for CRL 2158, the medium used was RPMI, and for CRL 1790, the medium used was EMEM (Eagle's minimum essential medium; Cedarlane Labs, Burlington, ON, Canada). All the media were supplemented with FBS, Penicillin/streptomycin, and L-glutamine. At confluency (˜80%), cells were washed with 1×PBS twice. Cells were incubated with trypsin-EDTA for 5 minutes and then diluted in respective media supplemented with 10% FBS before staining with trypan blue (50 μl of cells and 450 μl of trypan blue) and counting viable cells to evaluate cytotoxicity. The cytotoxicity was determined by trypan blue exclusion by living cells and blue staining of dead cells. The number of dead cells in a unit area was counted and expressed as a percentage of total cells in the area.
(§6) Cytotoxicity of nanoparticles and nanofibres against cancer cells: These studies evaluate the cytotoxic effects of the purified nanoparticles and the nanofibres isolated from sour cherry using normal human colonic epithelial cells (CRL 1790), human colorectal cancer cells (HT 29) and multidrug resistant human colorectal cancer cells (CRL 2158) in the presence or absence of paclitaxel. Nanoparticles were added as polyphenol equivalent aliquots, while the nanofibres were added on a weight basis. […]

Series [6] deals with multidrug resistant human colorectal cancer cells (CRL 2158). The procedure: as §5, §6
In series [7] the test system is normal human colonic epithelial cells (CRL 1790). The procedure: as §5, §6
Series [8] in a line: DPPH radical scavenging capacity of food powder. In kind it is biochemical. The note with it: positive control at the same concentrations as polyphenols. For orientation: The DPPH test is a chemical assay of radical scavenging.
Experimental: The powder was dissolved in water and the antioxidant capacity of the solution was determined by estimating the DPPH Radical scavenging capacity of solution as polyphenol equivalent (estimated by Folin-Ciocalteau reagent) in micrograms. A 0.1 mM Folin-Ciocateau reagent was prepared in methanol, and the food powder solution was added in the specified amounts. The antioxidants were allowed to react with 1 ml of DPPH reagent, and the absorbance (purple, 517 nm absorption) was monitored. The decline in 517 nm absorbance was noted and expressed as % quenching in comparison to a control without polyphenol. […] Each point at a concentration represents an individual sample of food powder prepared;
The powder was dissolved in water and the antioxidant capacity of the solution was determined by estimating the DPPH Radical scavenging capacity of solution as polyphenol equivalent (estmated by Folin-Ciocalteau reagent) in micrograms. A 0.1 mM Folin-Ciocateau reagent was prepared in methanol, and the food powder solution was added in the specified amounts. The antioxidants were allowed to react with 1 ml of DPPH reagent, and the absorbance (purple, 517 nm absorption) was monitored. The decline in 517 nm absorbance was noted and expressed as % quenching in comparison to a control without polyphenol. […] Each point at a concentration represents an individual sample of food powder prepared.

Each structure is given as a SMILES string. “And” between values parts separate entries of the source, which are not always exact repeats. Identical values can stand only once. “Also recorded” adds a separate entry of the source. Like-named read-outs stand apart in the source and are kept apart here.

As to `O=C(O)CN(CC(=O)O)Cc1cc2c(cc1O)Oc1cc(O)c(CN(CC(=O)O)CC(=O)O)cc1C21OC(=O)c2ccccc21` [Calcein], the “uptake into cells (in words)” value in the series on HT 29 cells is on record as “comparatively very low; also recorded: Far reduced uptake”; in series [1], “comparatively very low”.

Consider `CC(=O)O[C@H]1C(=O)[C@@]2(C)[C@H]([C@H](OC(=O)c3ccccc3)[C@]3(O)C[C@H](OC(=O)[C@H](O)[C@@H](NC(=O)c4ccccc4)c4ccccc4)C(C)=C1C3(C)C)[C@]1(OC(C)=O)CO[C@@H]1C[C@@H]2O` [Paclitaxel], for which the “% Living cells Colorectal Cancer Cell Line HT 29” value in series [2] is 10.78%; in series [5] (Paclitaxel 2 nM) it was 70.93%; in series [5] (Paclitaxel 8 nM), 59.11%; in series [5] (Paclitaxel 32 nM), 50% and 48.27%. For the same molecule, the “% Living cells Colorectal MDR cell line CRL 2158” value in [3] is 46.00%; in series [3] (listed as paclitaxel), about 50%; in series [6] (Paclitaxel 2 nM), 90.86%; in series [6] (Paclitaxel 8 nM) it was 86.17%; in [6] (Paclitaxel 32 nM) it was 83.76%. Further, the “% Living cells Normal Cell Line CRL 1790” value in series [4] stood at 97.6%; in series [7] (Paclitaxel 2 nM), 86.66%; in series [7] (Paclitaxel 8 nM) it was 74.28%; in series [7] (Paclitaxel 32 nM), 66.79%.

In [8], `Cc1c(C)c2c(c(C)c1O)CCC(C)(C(=O)O)O2` (stereo not shown) [Trolox] showed a TEAC value of 1.
